From ChEMBL document CHEMBL5380808, “Design, Synthesis, and Biological Activity of Marinacarboline Analogues as STAT3 Pathway Inhibitors for Docetaxel-Resistant Triple-Negative Breast Cancer” (J Med Chem, 2023)
Calls of active or inactive are those of the source. The rule behind the calls is not given here.

Assays:
[1] = Cytotoxicity against human MRC5 cells assessed as reduction in cell viability incubated for 72 hrs by sulforhodamine B assay; assay type: toxicity, cell-based
MDA-MB-231 [2] = assay: Antiproliferative activity against human MDA-MB-231 cells assessed as reduction in cell viability incubated for 72 hrs by sulforhodamine B assay; assay type: functional, cell-based; settings: MDA-MB-231, 72 h
[3] = Selectivity index, ratio of IC50 for cytotoxicity against human MRC5 cells to IC50 for antiproliferative activity against human MDA-MB-231 cells; assay type: toxicity, cell-based; settings: MRC5 cells and MDA-MB-231 cells, read-out: Ratio IC50
[4] = Antiproliferative activity against docetaxel-resistant human MDA-MB-231-DTR cells assessed as reduction in cell viability incubated for 72 hrs by sulforhodamine B assay; assay type: functional, cell-based; settings: MDA-MB-231, 72 h
[5] = molecular target: Signal transducer and activator of transcription 3 (Homo sapiens) (UniProt P40763); assay: Inhibition of STAT3 phosphorylation at Y705 residue in human MDA-MB-231 cells assessed as decrease in phosphorylated STAT3 level at 5 uM incubated for 24 hrs by Western blot analysis; assay type: cell-based
Chain of Signal transducer and activator of transcription 3 (Homo sapiens) (P40763 whole entry): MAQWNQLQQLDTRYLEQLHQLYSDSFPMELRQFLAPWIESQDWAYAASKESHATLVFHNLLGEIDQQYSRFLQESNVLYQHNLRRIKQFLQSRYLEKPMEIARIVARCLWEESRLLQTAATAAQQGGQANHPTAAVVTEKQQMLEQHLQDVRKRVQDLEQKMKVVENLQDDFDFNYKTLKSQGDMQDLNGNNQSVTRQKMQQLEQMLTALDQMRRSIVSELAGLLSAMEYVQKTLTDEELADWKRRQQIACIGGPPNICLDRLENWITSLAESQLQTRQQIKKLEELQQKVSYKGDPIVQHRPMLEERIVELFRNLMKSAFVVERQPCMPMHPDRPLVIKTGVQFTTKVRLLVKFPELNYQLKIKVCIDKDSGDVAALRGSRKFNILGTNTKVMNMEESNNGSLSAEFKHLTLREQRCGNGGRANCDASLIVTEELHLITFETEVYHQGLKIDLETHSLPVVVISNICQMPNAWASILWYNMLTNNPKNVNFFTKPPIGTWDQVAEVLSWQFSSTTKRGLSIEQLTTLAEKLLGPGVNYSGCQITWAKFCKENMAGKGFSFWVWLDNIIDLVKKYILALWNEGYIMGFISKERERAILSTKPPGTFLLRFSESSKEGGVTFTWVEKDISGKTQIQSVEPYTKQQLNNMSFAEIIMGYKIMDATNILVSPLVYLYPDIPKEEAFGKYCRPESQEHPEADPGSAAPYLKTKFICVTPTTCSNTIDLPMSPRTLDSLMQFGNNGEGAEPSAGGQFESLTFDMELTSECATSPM

MDA-MB-231 [6] = assay: Antiproliferative activity against human MDA-MB-231 cells assessed as reduction in cell viability incubated for 72 hrs by MTT assay; assay type: functional, cell-based; settings: MDA-MB-231, 72 h
MDA-MB-231 [7] = assay: Antitumor activity against docetaxel-resistant human MDA-MB-231-DTR cells xenografted in BALB/c mouse assessed as tumor growth inhibition at 5 mg/kg, ip daily for 12 days; assay type: functional, organism-based; settings: time 12.0 day
[8] = Antiproliferative activity against […] cells assessed as reduction in cell viability incubated for 72 hrs by MTT assay; assay type: functional, cell-based
[9] = molecular target: Signal transducer and activator of transcription 3 (Homo sapiens) (UniProt P40763); assay: Binding affinity to STAT3 in docetaxel-resistant human MDA-MB-231-DTR cells at 20 uM incubated for 1 hrs by streptavidin bead based pull-down assay; assay type: cell-based

Row | Compound | IC50 at 72 h [1] | IC50 (MDA-MB-231 [2]) | selectivity ratio [3] | other results
1 | CC(=O)c1nc(C(=O)NCc2ccccc2O)cc2c1[nH]c1ccccc12 | 38.3 µM | 10.3 µM | 3.7 | 
2 | CCCCNC(=O)c1cc2c([nH]c3ccccc32)c(C(C)=O)n1 | > 50 µM | > 50 µM |  | 
3 | COc1ccc2[nH]cc(CCNC(=O)c3cc4c([nH]c5ccccc54)c(C(C)=O)n3)c2c1 | 39.3 µM | 10.8 µM | 3.62 | 
4 | COC(=O)c1cc2c([nH]c3ccccc32)c(C(C)=O)n1 | > 50 µM | > 50 µM |  | 
5 | COc1ccc(NC(=O)c2cc3c([nH]c4ccccc43)c(C(C)=O)n2)cc1 | > 50 µM | > 50 µM |  | 
6 | CC(=O)c1nc(C(=O)NCCc2c(C)[nH]c3ccccc23)cc2c1[nH]c1ccccc12 | 41.9 µM | 11.3 µM | 3.71 | 
7 | CCCN(CCC)C(=O)c1cc2c([nH]c3ccccc32)c(C(C)=O)n1 | > 50 µM | > 50 µM |  | 
8 | CC(=O)c1nc(C(=O)NCc2cccc(O)c2)cc2c1[nH]c1ccccc12 | > 50 µM | 27.7 µM | > 1.81 | 
9 | CC(=O)c1nc(C(=O)NCc2ccc(Cl)cc2)cc2c1[nH]c1ccccc12 | > 50 µM | 48.3 µM | > 1.04 | 
10 | Cc1ccc(-c2nc(C(=O)NCCc3c[nH]c4ccccc34)cc3c2[nH]c2ccccc23)cc1 | 42 µM | 6.89 µM | 6.1 | 
11 | COc1cc([C@@H]2c3cc4c(cc3[C@@H](O[C@@H]3O[C@@H]5CO[C@@H](C)O[C@H]5[C@H](O)[C@H]3O)[C@H]3COC(=O)[C@H]23)OCO4)cc(OC)c1O [ETOPOSIDE] | 13.5 µM | 3.66 µM | 3.68 | 
12 | CC(=O)c1nc(C(=O)OCCc2c[nH]c3ccccc23)cc2c1[nH]c1ccccc12 | 38.3 µM | 9.52 µM | 4.02 | IC50 [4]: 8.48 µM
13 | CC(=O)c1nc(C(=O)NCCc2ccc(O)cc2)cc2c1[nH]c1ccccc12 | > 50 µM | > 50 µM |  | 
14 | CC(=O)c1nc(C(=O)NC(C)C)cc2c1[nH]c1ccccc12 | > 50 µM | 37.3 µM | > 1.34 | 
15 | CC(=O)c1nc(C(=O)NCc2ccc(C(C)(C)C)cc2)cc2c1[nH]c1ccccc12 | > 50 µM | 34.2 µM | > 1.46 | 
16 | O=C(NCCc1c[nH]c2ccccc12)c1cc2c([nH]c3ccccc32)c(C(=O)c2cccc(Br)c2)n1 | > 50 µM | > 50 µM |  | 
17 | COc1ccc(CCNC(=O)c2cc3c([nH]c4ccccc43)c(C(C)=O)n2)cc1 [MARINACARBOLINE A] | > 50 µM | > 50 µM |  | 
18 | CC(=O)c1nc(C(=O)NCCCc2c[nH]c3ccccc23)cc2c1[nH]c1ccccc12 | > 50 µM | > 50 µM |  | 
19 | O=C(NCCc1c[nH]c2ccccc12)c1cc2c([nH]c3ccccc32)c(C(=O)c2ccc(O)cc2)n1 | 39.3 µM | 6.82 µM | 5.76 | inhibition [5]: Active; IC50 [4]: 6.62 µM
20 | CCCC(=O)c1nc(C(=O)NCCc2c[nH]c3ccccc23)cc2c1[nH]c1ccccc12 | > 50 µM | > 50 µM |  | 
21 | O=C(NCc1ccc(O)cc1)c1cc2c([nH]c3ccccc32)c(C(=O)c2ccc(Br)cc2)n1 | > 50 µM | > 50 µM |  | 
22 | O=C(NCCc1c[nH]c2ccccc12)c1cc2c([nH]c3ccccc32)c(C(=O)c2ccc(Cl)cc2)n1 | > 50 µM | 14.7 µM | > 3.4 | 
23 | CC(=O)c1nc(C(=O)NCCCO)cc2c1[nH]c1ccccc12 | 41.2 µM | 16.5 µM | 2.5 | 
24 | O=C(NCc1ccc(O)cc1)c1cc2c([nH]c3ccccc32)c(C(=O)c2ccc(O)cc2)n1 | > 50 µM | > 50 µM |  | 
25 | CC(=O)c1nc(C(=O)NCc2ccc3[nH]ccc3c2)cc2c1[nH]c1ccccc12 | > 50 µM | 14.9 µM | > 3.36 | 
26 | CC(=O)c1nc(C(=O)O)cc2c1[nH]c1ccccc12 | > 50 µM | > 50 µM |  | 

Row | Compound | IC50 at 72 h [1] | IC50 (MDA-MB-231 [2]) | selectivity ratio [3] | other results
27 | CC(=O)O[C@H]1C(=O)[C@@]2(C)[C@H]([C@H](OC(=O)c3ccccc3)[C@]3(O)C[C@H](OC(=O)[C@H](O)[C@@H](NC(=O)c4ccccc4)c4ccccc4)C(C)=C1C3(C)C)[C@]1(OC(C)=O)CO[C@@H]1C[C@@H]2O [PACLITAXEL] |  |  |  | IC50 (MDA-MB-231 [6]): 0.07 µM; Activity (MDA-MB-231 [7]): inactive; IC50 [8]: 4.68 µM
28 | CC(=O)c1nc(C(=O)Nc2ccc(C(F)(F)F)cc2)cc2c1[nH]c1ccccc12 | > 50 µM | > 50 µM |  | 
29 | CC(=O)c1nc(C(=O)N(Cc2ccccc2)Cc2ccccc2)cc2c1[nH]c1ccccc12 | > 50 µM | 20.8 µM | > 2.4 | 
30 | CC(=O)c1nc(C(=O)NCCc2ccccc2)cc2c1[nH]c1ccccc12 | > 50 µM | > 50 µM |  | 
31 | O=C(NCCc1c[nH]c2ccccc12)c1cc2c([nH]c3ccccc32)c(C(=O)c2ccccc2Br)n1 | > 50 µM | > 50 µM |  | 
32 | CC(=O)c1nc(C(=O)NCCc2c[nH]c3ccc(Cl)cc23)cc2c1[nH]c1ccccc12 | 36.5 µM | 5.94 µM | 6.14 | 
33 | O=C(NCCc1c[nH]c2ccccc12)c1cc2c([nH]c3ccccc32)c(-c2ccccc2)n1 | > 50 µM | 19.2 µM | > 2.6 | 
34 | O=C(NCCc1c[nH]c2ccccc12)c1cc2c([nH]c3ccccc32)c(C(=O)c2ccccc2)n1 | 31.9 µM | 21.2 µM | 1.5 | 
35 | CC(=O)c1nc(C(=O)N(C)C)cc2c1[nH]c1ccccc12 | > 50 µM | > 50 µM |  | 
36 | COc1ccc(CNC(=O)c2cc3c([nH]c4ccccc43)c(C(C)=O)n2)cc1 | > 50 µM | 16.8 µM | > 2.97 | 
37 | CNC(=O)c1cc2c([nH]c3ccccc32)c(C(C)=O)n1 | > 50 µM | > 50 µM |  | 
38 | CC(=O)c1nc(C(=O)NCc2ccc(N)cc2)cc2c1[nH]c1ccccc12 | > 50 µM | 16.3 µM | > 3.07 | IC50 [4]: 15.5 µM
39 | O=C(CCCC[C@@H]1SC[C@@H]2NC(=O)N[C@@H]21)NCCn1cc(COc2ccc3[nH]c4c(C(=O)c5ccc(Br)cc5)nc(C(=O)NCCc5c[nH]c6ccccc56)cc4c3c2)nn1 |  |  |  | Activity [9]: Active
40 | Cc1ccc(C(=O)c2nc(C(=O)NCCc3c[nH]c4ccccc34)cc3c2[nH]c2ccccc23)cc1 | 41.2 µM | 8.29 µM | 4.98 | 
41 | CC(=O)c1nc(C(=O)Nc2ccccc2)cc2c1[nH]c1ccccc12 | > 50 µM | > 50 µM |  | 
42 | CC(=O)c1nc(C(=O)NCCCN(C)C)cc2c1[nH]c1ccccc12 | > 50 µM | 11.3 µM | > 4.41 | 
43 | CC(=O)c1nc(C(=O)NCc2ccc(F)cc2)cc2c1[nH]c1ccccc12 | > 50 µM | 24.7 µM | > 2.02 | 
44 | O=C(NCCc1c[nH]c2ccccc12)c1cc2c([nH]c3ccccc32)c(-c2ccc(Br)cc2)n1 | 48.8 µM | 7.06 µM | 6.19 | inhibition [5]: Active; IC50 [4]: 6.81 µM
45 | CC(=O)c1nc(C(=O)Nc2ccc(N)cc2)cc2c1[nH]c1ccccc12 | > 50 µM | 10.8 µM | > 4.63 | 
46 | CC(=O)c1nc(C(=O)NCc2ccccc2)cc2c1[nH]c1ccccc12 | > 50 µM | > 50 µM |  | 
47 | CC(=O)c1nc(C(=O)NCCc2c[nH]c3ccccc23)cc2c1[nH]c1ccccc12 [MARINACARBOLINE D] | 27.2 µM | 7.71 µM | 3.53 | IC50 [4]: 8.21 µM
48 | CC(=O)c1nc(C(=O)NCc2ccc(C#N)cc2)cc2c1[nH]c1ccccc12 | > 50 µM | > 50 µM |  | 
49 | CC(=O)c1nc(C(=O)NCc2c[nH]c3ccccc23)cc2c1[nH]c1ccccc12 | > 50 µM | 14.3 µM | > 3.51 | 
50 | CC(=O)c1nc(C(=O)Nc2ccc3[nH]ccc3c2)cc2c1[nH]c1ccccc12 | 48.2 µM | 6.98 µM | 6.91 | 
51 | O=C(NCCc1c[nH]c2ccccc12)c1cc2c([nH]c3ccccc32)c(-c2ccc(O)cc2)n1 | 46.3 µM | 5.68 µM | 8.15 | 
52 | CC(=O)c1nc(C(=O)NCc2ccc(O)cc2)cc2c1[nH]c1ccccc12 | > 50 µM | 3.51 µM | > 14.2 | IC50 [4]: 3.66 µM
